Like-named read-outs stand apart in the source and are kept apart here.
Columns and labels:
Boophilus microplus = Boophilus microplus test (BOOPMI injection); assay type: in vivo; conditions: 20 μg animal; injection into the abdomen; after 7 days, laying of fertile eggs
Method: Boophilus microplus Test (BOOPMI Injection) Solvent: dimethyl sulphoxide To prepare an appropriate active ingredient formulation, 10 mg of active ingredient are mixed with 0.5 ml of solvent and the concentrate is diluted with solvent to the desired concentration. The active ingredient solution is injected into the abdomen (Boophilus microplus), and the animals are transferred into dishes and stored in a climate-controlled room. The efficacy is assessed by laying of fertile eggs. After 7 days, the efficacy in % is determined. 100% means that none of the ticks has laid any fertile eggs.

[1] = system: larvae of the mustard beetle (Phaedon cochleariae); assay: Phaedon test (PHAECO spray treatment); assay type: in vivo; conditions: Chinese cabbage discs, after 7 days; for efficacy: 500 g/ha; for pest or weed control at 500 g/ha: Phaedon cochleariae, 168 h, read-out: efficacy
Method: Phaedon Test ([…] Spray Treatment) Solvent: 78.0 parts by weight of acetone • • 1.5 parts by weight of dimethylformamide Emulsifier: 0.5 part by weight of alkylaryl polyglycol ether To prepare an appropriate active ingredient preparation, 1 part by weight of active ingredient is mixed with the stated amounts of solvent and emulsifier, and the concentrate is diluted with emulsifier-containing water to the desired concentration. Discs of Chinese cabbage (Brassica pekinensis) are sprayed with an active ingredient preparation of the desired concentration and, after drying, populated with larvae of the mustard beetle (Phaedon cochleariae). After 7 days, the efficacy in % is determined. 100% means that all beetle larvae have been killed; 0% means that none of the beetle larvae have been killed.

[2] = system: red spider mite (Tetranychus urticae); assay: Tetranychus test, OP-resistant (TETRUR spray treatment); assay type: in vivo; conditions: bean leaf discs, after 6 days
Method: Tetranychus Test, OP-Resistant (TETRUR Spray Treatment)
Solvent: 78.0 parts by weight of acetone • • 1.5 parts by weight of dimethylformamide
Emulsifier: 0.5 part by weight of alkylaryl polyglycol ether
To prepare an appropriate active ingredient preparation, 1 part by weight of active ingredient is mixed with the stated amounts of solvent and emulsifier, and the concentrate is diluted with emulsifier-containing water to the desired concentration. Discs of bean leaves (Phaseolus vulgaris) infested by all stages of the red spider mite (Tetranychus urticae) are sprayed with an active ingredient preparation of the desired concentration. After 6 days, the efficacy in % is determined. 100% means that all spider mites have been killed; 0% means that none of the spider mites have been killed.

[3] = logP by HPLC on reversed-phase columns (C 18), EEC Directive 79/831 Annex V.A8; assay type: physicochemical; conditions: for chromatographic logP: reversed-phase C18 HPLC column, read-out: log P
Description: [table] The calibration is effected with unbranched alkan-2-ones (having 3 to 16 carbon atoms) with known logP values (logP values determined on the basis of the retention times by linear interpolation between two successive alkanones).

[4] = system: caterpillars of the armyworm (Spodoptera frugiperda); assay: Spodoptera frugiperda test (SPODFR spray treatment); assay type: in vivo; conditions: maize leaf discs, after 7 days; for efficacy: 500 g/ha; for pest or weed control at 500 g/ha: Spodoptera frugiperda, foliar, 168 h, read-out: efficacy
Method: Spodoptera frugiperda Test (SPODFR Spray Treatment) Solvent: 78.0 parts by weight of acetone • • 1.5 parts by weight of dimethylformamide Emulsifier: 0.5 part by weight of alkylaryl polyglycol ether To prepare an appropriate active ingredient preparation, 1 part by weight of active ingredient is mixed with the stated amounts of solvent and emulsifier, and the concentrate is diluted with emulsifier-containing water to the desired concentration. Discs of maize leaves (Zea mays) are sprayed with an active ingredient preparation of the desired concentration and, after drying, populated with caterpillars of the armyworm (Spodoptera frugiperda). After 7 days, the efficacy in % is determined. 100% means that all caterpillars have been killed; 0% means that none of the caterpillars have been killed.

[5] = * LC-MS, acidic range pH 2.7, 0.1% aqueous formic acid and acetonitrile
[6] = pH 2.7, * LC-MS, acidic range pH 2.7, 0.1% aqueous formic acid and acetonitrile

`CCC(OC)c1nn(-c2nccnc2OC)c(N)c1-c1ccc(Cl)c(Cl)c1` (centres unmarked) [Ex. 3] showed an efficacy (Boophilus microplus) of 100%, an efficacy [1] of 100% and an efficacy ([2]; 500 g/ha) of 100%.
Molecule `CCCOc1nccnc1-n1nc(C(F)(F)F)c(-c2ccc(Br)cc2)c1N` [Ex. 4] has a chromatographic logP ([3]; pH 2.3, ** acidic range pH 2.3, 0.1% aqueous phosphoric acid and acetonitrile) of 4.11, a pest or weed control at 500 g/ha [1] of 83% and a pest or weed control at 500 g/ha ([2]; Tetranychus urticae, foliar, 144 h, 500 g/ha, read-out: efficacy) of 90%.
Work on `CC(C)Oc1nccnc1-n1nc(C(F)(F)F)c(-c2cc(Cl)cc(C(F)(F)F)c2)c1N` [Ex. 13] yielded an efficacy [1] of 83%.
Work on `Cc1nccnc1-n1nc(C(F)(F)F)c(-c2cc(Cl)cc(C(F)(F)F)c2)c1N` [Ex. 23] yielded an efficacy [1] of 100% and an efficacy ([2]; 500 g/ha) of 100%.
Work on `N#Cc1nccnc1-n1nc(C(F)(F)F)c(-c2cc(Cl)cc(C(F)(F)F)c2)c1N` [Ex. 27] yielded an efficacy [1] of 100%.
In the case of `CCOc1nccnc1-n1nc(C(F)(F)F)c(-c2cc(Cl)cc(C(F)(F)F)c2)c1N(Cc1ccccc1)Cc1ccccc1` [Ex. 34], the “log P” value [3, 5] is reported as 7*.
Work on `CCOc1nccnc1-n1nc(C(F)(F)F)c(-c2cc(Cl)cc(C(F)(F)F)c2)c1NCc1ccccc1` [Ex. 35] yielded an efficacy ([2]; 500 g/ha) of 90%.
Molecule `CCOc1nccnc1-n1nc(C(F)(F)F)c(-c2cc(Cl)cc(C(F)(F)F)c2)c1N(Cc1ccc(OC)cc1)Cc1ccc(OC)cc1` [Ex. 43] has an efficacy [1] of 100% and an efficacy [4] of 100%.
In the case of `Nc1c(-c2cc(Cl)cc(C(F)(F)F)c2)c(C(F)(F)F)nn1-c1nccnc1-n1ccnc1` [Ex. 44], the efficacy [1] is reported as 100% and the efficacy [4] is reported as 100%.
For `COc1nccnc1-n1nc(C(F)(F)F)c(-c2ccccn2)c1N` [Ex. 49], the chromatographic logP [3, 6] was 2.59.
For `COc1nccnc1-n1nc(C(F)(F)F)c(-c2cncc(Br)c2)c1N` [Ex. 50], the chromatographic logP [3, 6] was 2.62.
`COc1nccnc1-n1nc(C(F)(F)F)c(-c2ncc(Cl)cc2Cl)c1N` [Ex. 52] gave a chromatographic logP [3, 6] of 2.94 and a pest or weed control at 500 g/ha [1] of 100%.
With `COc1nccnc1-n1nc(C(F)(F)F)c(-c2ccc(Cl)cn2)c1N` [Ex. 53] the chromatographic logP [3, 6] was 3.55.
`COc1nccnc1-n1nc(C(F)(F)C(F)(F)F)c(-c2ccc(Cl)cn2)c1N` [Ex. 54] showed a chromatographic logP [3, 6] of 4.17.
With `COc1nccnc1-n1nc(C(F)(F)F)c(-c2cccnc2Cl)c1N` [Ex. 57] the chromatographic logP [3, 6] was 2.19.
For `COc1nccnc1-n1nc(C(F)(F)C(F)(F)F)c(-c2ccc(Cl)nc2)c1N` [Ex. 58], the chromatographic logP [3, 6] was 3.14.
In the case of `COc1nccnc1-n1nc(C(F)(F)C(F)F)c(-c2cc(Cl)c3c(c2)OCO3)c1N` [Ex. 65], the efficacy [1] is reported as 100%, the efficacy ([2]; 500 g/ha) is reported as 90% and the efficacy [4] is reported as 100%.
Molecule `COc1nccnc1-n1nc(C(F)(F)C(F)F)c(-c2cc(Cl)c3c(c2)CCO3)c1N` [Ex. 66] has an efficacy [1] of 100%, an efficacy ([2]; 500 g/ha) of 90% and an efficacy [4] of 100%.
In the case of `COc1nccnc1-n1nc(C2CC2)c(-c2cc(Cl)c3c(c2)OCO3)c1N` [Ex. 79], the chromatographic logP [3, 6] is reported as 2.79, the pest or weed control at 500 g/ha [1] is reported as 100% and the pest or weed control at 500 g/ha [4] is reported as 100%.
`COc1nccnc1-n1nc(C(F)(F)F)c(-c2cc(Cl)c(Cl)c(C(F)(F)F)c2)c1N` [Ex. 86] gave an efficacy [1] of 100% and an efficacy [4] of 100%.
`COc1nccnc1-n1nc(C(F)(F)F)c(-c2cc(Cl)c(Cl)c(Cl)c2)c1N` [Ex. 87] gave a chromatographic logP [3, 6] of 4.35, a pest or weed control at 500 g/ha [1] of 100% and a pest or weed control at 500 g/ha [4] of 100%.
For `C=C(C)CNc1c(-c2cc(Cl)cc(C(F)(F)F)c2)c(C(F)(F)F)nn1-c1nccnc1OC` [Ex. 96], the efficacy ([2]; 500 g/ha) was 100%.
`COc1nccnc1-n1nc(C(F)(F)C(F)F)c(-c2cc(Cl)c(Cl)c(Cl)c2)c1N` [Ex. 116] gave an efficacy [1] of 100%, an efficacy ([2]; 500 g/ha) of 90% and an efficacy [4] of 100%.
Molecule `COc1nccnc1-n1nc(C(F)(F)F)c(-c2cc(Cl)c(N(C)C)c(Cl)c2)c1N` [Ex. 121] has an efficacy [1] of 100%, an efficacy ([2]; 100 g/ha) of 80% and an efficacy [4] of 100%.
`COc1nccnc1-n1nc(C(F)(F)F)c(-c2ccc(N(C)C)c(Cl)c2)c1N` [Ex. 122] gave an efficacy [1] of 100% and an efficacy [4] of 100%.
`COc1nccnc1-n1nc(C(F)(F)F)c(-c2cc(Cl)c(N(C)C)c(C(F)(F)F)c2)c1N` [Ex. 123] showed an efficacy [1] of 100%, an efficacy ([2]; 500 g/ha) of 80% and an efficacy [4] of 100%.
With `COc1nccnc1-n1nc(C(F)(F)F)c(-c2cc(F)c(OC)c(Cl)c2)c1N` [Ex. 124] the “log P” value ([3]; *** LC-MS, neutral range pH 7.8, 0.001 molar aqueous ammonium hydrogencarbonate and acetonitrile) was 3.5***;, the efficacy [1] was 100% and the efficacy ([2]; 500 g/ha) was 90%. The efficacy [4] was 100%.
In the case of `COc1cc(-c2c(C(F)(F)F)nn(-c3nccnc3OC)c2N)ccc1OCC(F)(F)F` [Ex. 125], the efficacy [1] is reported as 100% and the efficacy ([2]; 500 g/ha) is reported as 90%.
Molecule `CCOc1cc(-c2c(C(F)(F)F)nn(-c3nccnc3OC)c2N)ccc1OCC(F)(F)F` [Ex. 127] has an efficacy [1] of 100% and an efficacy ([2]; 500 g/ha) of 90%.
In the case of `COc1ccc(-c2c(C(F)(F)F)nn(-c3nccnc3OC)c2N)c(Br)c1OC` [Ex. 128], the chromatographic logP [3, 6] is reported as 2.87.
`Nc1c(-c2cc(Cl)cc(C(F)(F)F)c2)c(C(F)(F)F)nn1-c1nccnc1C(F)(F)F` [Ex. 130] gave an efficacy [1] of 100% and an efficacy [4] of 100%.
Molecule `COc1cc(-c2c(C(F)(F)F)nn(-c3nccnc3OC)c2N)cc(Cl)c1OCC(F)(F)F` [Ex. 134] has an efficacy [1] of 100% and an efficacy [4] of 100%.
`COc1nccnc1-n1nc(C(F)(F)F)c(-c2ccccc2Br)c1N` [Ex. 137] showed a chromatographic logP [3, 6] of 3.
With `COc1nccnc1-n1nc(C(F)(F)F)c(-c2ccccc2I)c1N` [Ex. 138] the chromatographic logP [3, 6] was 3.09.
With `CCOc1cc(-c2c(C(F)(F)F)nn(-c3nccnc3OC)c2N)cc(Br)c1OCC(F)(F)F` [Ex. 140] the “log P” value [3, 5] was 4.3*, the efficacy [1] was 100% and the efficacy [4] was 100%.
In the case of `COc1nccnc1-n1nc(C(F)(F)F)c(-c2c(F)ccc(Cl)c2Cl)c1N` [Ex. 142], the chromatographic logP [3, 6] is reported as 3.31 and the pest or weed control at 500 g/ha [1] is reported as 100%.
In the case of `COc1nccnc1-n1nc(C(F)(F)F)c(-c2cc3c(cc2Cl)OCO3)c1N` [Ex. 143], the chromatographic logP [3, 6] is reported as 2.86.
Molecule `CCOc1cc(-c2c(C(F)(F)F)nn(-c3nccnc3OC)c2N)cc(Cl)c1OCC(F)(F)F` [Ex. 144] has an efficacy [1] of 100%, an efficacy ([2]; 500 g/ha) of 100% and an efficacy [4] of 100%.
In the case of `COc1nccnc1-n1nc(C(F)(F)F)c(-c2ccc3c(c2)CCC(C)(C)O3)c1N` [Ex. 145], the efficacy [1] is reported as 100%.
`COc1cc(-c2c(C(F)(F)F)nn(-c3nccnc3OC)c2N)cc(I)c1OC` [Ex. 147] showed a chromatographic logP [3, 6] of 3.47.
Molecule `COc1cc(-c2c(C(F)(F)C(F)F)nn(-c3nccnc3OC)c2N)cc(C(F)(F)F)c1OC` [Ex. 157] has an efficacy [1] of 100%, an efficacy ([2]; 500 g/ha) of 100% and an efficacy [4] of 100%.
`CCc1nn(-c2nccnc2OC)c(N)c1-c1cc(Cl)c(OC)c(OC)c1` [Ex. 161] gave a chromatographic logP [3, 6] of 2.66, a pest or weed control at 500 g/ha [1] of 100% and a pest or weed control at 500 g/ha [4] of 100%.
Work on `COc1nccnc1-n1nc(C(F)(F)F)c(-c2cc(F)c(Cl)cc2Cl)c1N` [Ex. 166] yielded an efficacy [1] of 100% and an efficacy ([2]; 500 g/ha) of 90%.
Work on `COc1nccnc1-n1nc(C(F)(F)F)c(-c2cc3c(c(C(F)(F)F)c2)OCCO3)c1N` [Ex. 173] yielded an efficacy [1] of 100%, an efficacy ([2]; 500 g/ha) of 90% and an efficacy [4] of 100%.
For `COc1cc(-c2c(C(F)(F)F)nn(-c3nccnc3OC)c2N)cc(I)c1OC` [Ex. 176], the “log P” value [3, 5] was 3.87*.
Molecule `CCOc1nccnc1-n1nc(CC)c(-c2cc(Br)c3c(c2)OCO3)c1N` [Ex. 177] has a chromatographic logP [3, 6] of 3.03.
In the case of `CCc1nn(-c2nccnc2OC)c(N)c1-c1cc(Br)c2c(c1)OCO2` [Ex. 178], the chromatographic logP [3, 6] is reported as 2.65.
In the case of `COc1nccnc1-n1nc(C(F)(F)F)c(-c2cc(Cl)cc(C(F)(F)F)c2)c1N(C)C` [compound 107, 1-(3-methoxypyrazin-2-yl)-4-[3-chloro-5-(trifluoromethyl)phenyl]-3-(trifluoromethyl)-1H-pyrazole-5-dimethylamine], the “log P” value [3, 5] is reported as 5.11* and the efficacy [1] is reported as 83%.
